Assay results published in patent US20230115817A1, “CRYSTAL OF PDE3/PDE4 DUAL INHIBITOR AND USE THEREOF” (Chia Tai Tianqing Pharmaceutical Group Co., Ltd., priority 2020, published 2023).
Each block holds one compound with its values, some of them ahead of it.

How the values were obtained:
PDE4 = details: cited from earlier work
[1] = in vivo; cited from earlier work
[2] = cited from earlier work
[3] = Solid stability testing of crystalline form B (HPLC); format: physicochemical
Protocol: Example 6: Stability Study of Solid Crystalline Form B of the Compound of Formula (I) High Performance Liquid Chromatography (HPLC)
The chromatographic conditions of the HPLC method are seen in table below: Chromatographic column: Zorbax SB C-18, 4.6 mm×150 mm, 5 μm (PDS-HPLC-007)
Mobile phase A: 0.1% TFA in water
Preparation of sample: the sample was dissolved in a mixed solvent of acetonitrile and water (acetonitrile:water=50:50 (v/v))
The stability of the compound in the following conditions was examined, and samples were taken at different time points to detect the content. About 5 mg of the crystalline form B of the compound of formula (I) was accurately weighted in duplicate, transferred to a dry and clean glass bottle, spread into a thin layer as test samples, and placed in experimental conditions of influential factors ((60° C.), (relative humidity 92.5%), illumination (total illumination of 1.2×106 Lux·hr/near UV energy of 200 w·hr/m2), (40° C., relative humidity 75%), or (60° C., relative humidity 75%)). The samples were covered with aluminum foils having holes, and thus completely exposed to the conditions. Sampling analysis was performed at 5 days, 10 days, 1 month, 2 months and 3 months. The samples were completely exposed to illumination (visible light of 1200000 Lux, UV of 200 W) at room temperature.

[4] = Hygroscopicity study (dynamic vapor sorption); format: physicochemical; details: 25° C., 0%-90%-0% RH
Protocol: Example 7: Hygroscopicity Study of Crystalline Form B of Compound of Formula (I)
Instrument model: SMS DVS Advantage
Test conditions: the sample (10-20 mg, the crystalline form B prepared in Example 3) was placed in DVS sample tray for testing.
Balancing: dm/dt=0.01%/min (shortest: 10 min, longest: 180 min)
Drying: drying at 0% RH for 120 min
RH (%) test gradient: 10%

[5] = system: cigarette smoke-induced rat acute lung injury model; assay: Pharmacodynamic study in cigarette smoke-induced rat acute lung injury model; format: in vivo, Sprague-Dawley rats; details: atomization 0.05 and 0.15 mg/ml, 30 min daily
Protocol: Experimental Example 5: Pharmacodynamic Study in Cigarette Smoke-Induced Rat Acute Lung Injury Model
Male Sprague-Dawley rats (supplied by Shanghai SLAC Laboratory Animal Co., Ltd.), SPF grade, approximately 200 g.
1. Animals were randomly divided into 6 groups according to body weight after arrival and a one-week acclimation;
2. On days 1-3 of the experiment, the corresponding compound of each group was atomized for 30 min. The animals in the model group and the treatment groups were exposed to cigarette smoke for 1 h, and after a 4-h interval, the animals were exposed to cigarette smoke again for 1 h. Cigarette smoke was given twice daily for 3 consecutive days. The control group animals were exposed to room air;
3. On day 4 of the experiment, the corresponding compound of each group was atomized for 30 min, and then the animals in the model group and the treatment groups were given the atomized 150 ng/mL LPS for 15 min by inhalation. After 3 h (from the time starting atomization), the animals were exposed to cigarette smoke for 1 h, and then the lung function (Penh and F) of the animals was examined; bronchoalveolar lavage fluid was collected for cell counting after the animals were euthanized with CO2. […]

[6] = Pharmacokinetic study in beagle dogs; format: in vivo
Protocol: Experimental Example 3: Pharmacokinetic Study in Beagle Dogs
In this study, male beagle dogs were selected as test animals, and LC-MS/MS was used for quantitatively measuring the drug concentration in plasma of beagle dogs at different time points after intravenous injection or intragastric administration of the compound of formula (I) so as to evaluate the pharmacokinetics of the compound of formula (I) in beagle dogs.
The clear solution of the compound of formula (I) was injected into two beagle dogs of 10-12 kg via the cephalic vein or saphenous vein, and the clear solution of the compound of formula (I) was administered intragastrically to two beagle dogs of 10-12 kg (fasted overnight). The animals were all subjected to a blood collection of approximately 500 μL each time from peripheral veins at 0.0333, 0.0833, 0.25, 0.5, 1, 2, 4, 6, 8 and 24 h post-dose, and the blood was transferred into commercial centrifuge tubes containing 0.85-1.15 mg of K2 EDTA.2H2O anticoagulant, and plasma was separated by centrifugation at 3000 g for 10 min at 4° C. The plasma concentration was measured by LC-MS/MS, and the relevant pharmacokinetic parameters were calculated using pharmacokinetic software WinNonlin™ Version 6.3 (Pharsight, Mountain View, Calif.) using non-compartmental model linear-log trapezoidal method.

[7] = intragastric administration 3 mg/kg
[8] = intravenous injection 0.5 mg/kg

Compound: COc1cc2c(cc1OC)-c1c/c(=N\c3c(C)cc(C)cc3C)n(CCNC(N)=O)c(=O)n1CC2 [RPL554]
- PDE4 inhibitory activity (in words) (PDE4): unsatisfactory
- Plasma clearance (in words) [1]: high plasma clearance
- Solubility (in words) [2]: poor solubility

Compound: COc1cc2c(cc1OC)-c1cc(Oc3c(C(C)C)cccc3C(C)C)nc(=O)n1CC2 [RPL565]
- PDE4 inhibitory activity (in words) (PDE4): unsatisfactory
- Plasma clearance (in words) [1]: high plasma clearance
- Solubility (in words) [2]: poor solubility

- Total impurities % ([3]; 40° C.-75% RH-1 month): 0.10%
- Total impurities % ([3]; 40° C.-75% RH-2 months): 0.08%
- Total impurities % ([3]; 40° C.-75% RH-3 months): 0.09%
- Total impurities % ([3]; 40° C.-75% RH-10 days): 0.10%
- Total impurities % ([3]; 60° C.-75% RH-1 month): 0.10%
- Total impurities % ([3]; 60° C.-75% RH-10 days): 0.10%
- Total impurities % ([3]; 60° C.-5 days): 0.10%
- Total impurities % ([3]; 60° C.-10 days): 0.11%
- Total impurities % ([3]; 92.5% RH-5 days): 0.11%
- Total impurities % ([3]; 92.5% RH-10 days): 0.10%
- Total impurities % ([3]; Day 0): 0.11%
- Total impurities % ([3]; Illumination (1.2×106 Lux·hr, near UV 200 w·hr/m2)): 0.10%
- Total impurities % ([3]; In the dark): 0.11%
- Solid stability (in words) ([3]; high temperature, high humidity or illumination): good stability
- Hygroscopicity (DVS, in words) [4]: low hygroscopicity
Compound: CCOc1cc2c(cc1OC)-c1c/c(=N\c3c(C)cc(C)cc3C)n(CCNC(=O)c3c(O)nnn3C)c(=O)n1CC2

- Area under plasma concentration-time curve (0-inf) [6, 7]: 0.123 µM·h
- Peak concentration [6, 7]: 59.4 nM
- Time to peak [6, 7]: 0.6 h
- Area under plasma concentration-time curve (0-inf) [6, 8]: 0.21 µM·h
- Half-life [6, 8]: 18 min
- Plasma clearance [6, 8]: 70.3 mL/min/kg
- bioavailability ([6]; male, dog, plasma, po, intragastric administration 3 mg/kg): 7.5%
Compound: CCOc1cc2c(cc1OC)-c1c/c(=N\c3c(C)cc(C)cc3C)n(CCNC(=O)c3c(O)nnn3C)c(=O)n1CC2 [Compound of formula (I)]
- Airway resistance index Penh (Mch challenge) [5]: reduce
- Total number of white blood cells in BALF [5]: reduce
